≈ marks a conversion by molar mass, not a printed value.
Columns and labels:
[1] = Inhibition of Escherichia coli MsbA preincubated for 10 mins followed by ATP addition and incubated for 1 hr by fluorescence polarization assay
[2] = Lipophilicity, logD of compound by shake flask method; format: physicochemical; details: octanol/water
[3] = test system: Escherichia coli; experiment: Antibacterial activity against wild type Escherichia coli CFT073 (ATCC 700928) assessed as bacterial growth by broth microdilution assay; format: functional
[4] = test system: Escherichia coli; experiment: Antibacterial activity against wild type Escherichia coli MG1655 carrying lptD (imp4213) assessed as bacterial growth inhibition by broth microdilution assay; format: functional

CC(Oc1ccc2ncc(/C=C/C(=O)O)c(C3CC3)c2c1)c1c(Cl)cccc1C#N (configuration not stated)
IC50 [1]: 24 nM | logD [2]: 2.2 | MIC [3]: > 100 µM

C[C@H](Oc1ccc2c(c1)c(C1CC1)c(/C=C/C(=O)O)c[n+]2[O-])c1c(Cl)ccc(F)c1Cl
IC50 [1]: 13 nM | logD [2]: 1.7 | MIC [3]: > 100 µM

C[C@H](Oc1ccc2ncc(/C=C/c3nn[nH]n3)c(C3CC3)c2c1)c1c(Cl)ccc(F)c1Cl
IC50 [1]: 3 nM | logD [2]: 3.7 | MIC [3]: 12 µM

C[C@H](Oc1ccc2ncc(/C=C/C(=O)N3CC[C@@H](N)[C@H](C(=O)O)C3)c(C3CC3)c2c1)c1c(Cl)ccc(F)c1Cl (mixture of isomers)
IC50 [1]: 5 nM | logD [2]: 3.1 | MIC [3]: > 100 µM

C[C@H](Oc1ccc2c(c1)CN(CCC(=O)O)CC2)c1c(Cl)ccc(F)c1Cl
IC50 [1]: > 50000 nM | MIC [3]: > 100 µM

C[C@H](Oc1ccc2ncc(/C=C/C(=O)O)c(C(F)F)c2c1)c1c(Cl)ccc(F)c1Cl
IC50 [1]: 8 nM | logD [2]: 3.1 | MIC [3]: 25 µM

C[C@H](Oc1ccc2ncc(/C=C/C(N)=O)c(C3CC3)c2c1)c1c(Cl)ccc(F)c1Cl
IC50 [1]: 7 nM | logD [2]: > 5.5 | MIC [3]: > 100 µM

C[C@H](Oc1cnc2cnc(/C=C/C(=O)O)c(C3CC3)c2c1)c1c(Cl)cccc1Cl
IC50 [1]: 12 nM | MIC [3]: > 100 µM

C[C@H](Oc1ccc2ncc(/C=C/C(=O)O)c(C#N)c2c1)c1c(Cl)ccc(F)c1Cl
IC50 [1]: 110 nM | logD [2]: 2.3 | MIC [3]: > 100 µM

C[C@H](Oc1ccc(NC(=O)CC(=O)O)c(C2CC2)c1)c1c(Cl)ccc(F)c1Cl
IC50 [1]: 60 nM | logD [2]: 1.9 | MIC [4]: 71 µM (≈ 30.3 µg/mL) | MIC [3]: > 100 µM

C[C@H](Oc1ccc2ncc(/C=C/C(=O)O)c(C3CC3)c2c1)c1c(Cl)ccc(F)c1Cl
IC50 [1]: 4 nM | logD [2]: 4.1 | MIC [3]: 79 µM

C[C@H](Oc1cc(B(O)O)c2ncc(/C=C/C(=O)O)c(C3CC3)c2c1)c1c(Cl)ccc(F)c1Cl
IC50 [1]: 150 nM | MIC [3]: > 100 µM

Cc1cc(O[C@@H](C)c2c(Cl)ccc(F)c2Cl)ccc1/C=C/C(=O)O
IC50 [1]: 2200 nM | logD [2]: 3.2 | MIC [4]: > 100 µM | MIC [3]: > 100 µM

C[C@H](Oc1ccnc(C2CC2)c1)c1c(Cl)ccc(F)c1Cl
IC50 [1]: 3400 nM | logD [2]: 4.3 | MIC [4]: > 100 µM | MIC [3]: > 100 µM

C[C@H](Oc1ccc2ncc(-c3ccn(CCC(=O)O)n3)c(C3CC3)c2c1)c1c(Cl)cccc1Cl
IC50 [1]: 6 nM | logD [2]: 2.7 | MIC [3]: > 100 µM

C[C@H](Oc1ccc2ncc(/C=C/C(=O)O)c(C3CC3)c2c1)c1c(Cl)ccnc1Cl
IC50 [1]: 18 nM | logD [2]: 2.3 | MIC [3]: > 100 µM

C[C@H](Oc1cccc(C2CC2)n1)c1c(Cl)ccc(F)c1Cl
IC50 [1]: > 10000 nM | logD [2]: 4.9 | MIC [4]: > 100 µM | MIC [3]: > 100 µM

C[C@H](Oc1ccc2c(=O)nc(/C=C/C(=O)O)n(C3CC3)c2c1)c1c(Cl)ccc(F)c1Cl
IC50 [1]: 7200 nM | MIC [3]: > 100 µM

C[C@H](Oc1ccc2ncc(/C=C/C(=O)O)cc2c1)c1c(Cl)ccc(F)c1Cl
IC50 [1]: 140 nM | logD [2]: 2.5 | MIC [3]: > 100 µM

Cc1cnn(C)c1[C@H](C)Oc1ccc2ncc(/C=C/C(=O)O)c(C3CC3)c2c1
IC50 [1]: > 10000 nM | logD [2]: 0.9 | MIC [3]: > 100 µM

C[C@H](Oc1ccc2ncc(/C=C/S(=O)(=O)O)c(C3CC3)c2c1)c1c(Cl)ccc(F)c1Cl
IC50 [1]: 14 nM | logD [2]: 2.5 | MIC [3]: > 100 µM

C[C@H](Oc1ccc2nnc(/C=C/C(=O)O)c(C3CC3)c2c1)c1c(Cl)ccc(F)c1Cl
IC50 [1]: 20 nM | logD [2]: 3.2 | MIC [3]: > 100 µM

C[C@H](Oc1ccc2ncc(/C=C/C(=O)O)c(C3CC3)c2c1)c1c(Cl)cccc1Cl
IC50 [1]: 2 nM | logD [2]: 3.7 | MIC [3]: 30 µM

C[C@H](Oc1ccc2ncc(O)c(C3CC3)c2c1)c1c(Cl)ccc(F)c1Cl
IC50 [1]: 42 nM | MIC [3]: > 100 µM

C[C@H](Oc1ccc2ncc(CCC(=O)O)c(C3CC3)c2c1)c1c(Cl)ccc(F)c1Cl
IC50 [1]: 7 nM | logD [2]: 4.1 | MIC [3]: > 100 µM

Cc1c(/C=C/C(=O)O)ccc2ccc(O[C@@H](C)c3c(Cl)ccc(F)c3Cl)cc12
IC50 [1]: 32 nM | logD [2]: 4.5 | MIC [3]: > 100 µM

CC(Oc1ccc2ncc(/C=C/C(=O)O)cc2c1)C1CCCCC1 (configuration not stated)
IC50 [1]: 39000 nM | logD [2]: 3

C[C@H](Oc1ccc(/C=C/C(=O)O)c(C2CC2)c1)c1c(Cl)ccc(F)c1Cl
IC50 [1]: 100 nM | logD [2]: 3.6 | MIC [4]: 100 µM (≈ 39.5 µg/mL) | MIC [3]: > 100 µM

C[C@H](Oc1ccc2ncc(/C=C/C(=O)O)c(C3CC3)c2c1)c1c(Cl)ccc(N)c1Cl
IC50 [1]: 14 nM | logD [2]: 2.8 | MIC [3]: 63 µM

C[C@H](Oc1cc(CO)c2ncc(/C=C/C(=O)O)c(C3CC3)c2c1)c1c(Cl)ccc(F)c1Cl
IC50 [1]: 10 nM | logD [2]: 2.9 | MIC [3]: > 100 µM

C[C@H](Oc1cc(CC#N)c2ncc(/C=C/C(=O)O)c(C3CC3)c2c1)c1c(Cl)ccc(F)c1Cl
IC50 [1]: 20 nM | logD [2]: 2.8 | MIC [3]: 79 µM

C[C@H](Oc1cccc(C2CC2)c1)c1c(Cl)ccc(F)c1Cl
IC50 [1]: > 10000 nM | logD [2]: 5 | MIC [4]: > 100 µM | MIC [3]: > 100 µM

C[C@H](Oc1ccc2ncc(/C=C/C(=O)O)c(C3COC3)c2c1)c1c(Cl)ccc(F)c1Cl
IC50 [1]: 120 nM | MIC [3]: > 100 µM

C[C@H](Oc1ccnc(C2CC2)n1)c1c(Cl)ccc(F)c1Cl
IC50 [1]: 450 nM | logD [2]: 4.2 | MIC [4]: > 100 µM | MIC [3]: > 100 µM

C[C@H](Oc1ccc(/C=C/C(=O)O)c(CC2CC2)c1)c1c(Cl)ccc(F)c1Cl
IC50 [1]: 460 nM | logD [2]: 3.9 | MIC [4]: 50 µM (≈ 20.5 µg/mL) | MIC [3]: > 100 µM

C[C@H](Oc1ccc2nc(OCCN)c(CCC(=O)O)c(C3CC3)c2c1)c1c(Cl)ccc(F)c1Cl
IC50 [1]: 32 nM | logD [2]: 3.8 | MIC [3]: > 100 µM

C[C@H](Oc1ccc(/C=C/C(=O)O)cc1)c1c(Cl)ccc(F)c1Cl
IC50 [1]: 5800 nM | logD [2]: 2.8 | MIC [4]: > 100 µM | MIC [3]: > 100 µM

CC(C)Oc1ccc2ncc(/C=C/C(=O)O)c(C3CC3)c2c1
IC50 [1]: > 10000 nM | MIC [3]: > 100 µM

C[C@H](Oc1ccc(NC(=O)CC(N)=O)c(C2CC2)n1)c1c(Cl)ccc(F)c1Cl
IC50 [1]: 27 nM | logD [2]: 3.7 | MIC [4]: 12 µM (≈ 5.12 µg/mL) | MIC [3]: > 100 µM

C[C@H](Oc1ccc2ncc(/C=C/C(=O)O)c(N(C)C)c2c1)c1c(Cl)ccc(F)c1Cl
IC50 [1]: 290 nM | logD [2]: 3.6 | MIC [3]: > 100 µM

C[C@H](Oc1nccc(N(c2nc(C(=O)O)cs2)C2CC2)n1)c1c(Cl)ccc(F)c1Cl
IC50 [1]: 46 nM | logD [2]: 2.6 | MIC [3]: > 100 µM

C[C@H](Oc1ccc(NC(=O)CC(N)=O)c(C2CC2)c1)c1c(Cl)ccc(F)c1Cl
IC50 [1]: 40 nM | logD [2]: 3.9 | MIC [4]: 25 µM (≈ 10.6 µg/mL) | MIC [3]: > 100 µM

C[C@H](Oc1ccc2ncc(S(=O)(=O)CC(=O)O)c(C3CC3)c2c1)c1c(Cl)ccc(F)c1Cl
IC50 [1]: 78 nM | logD [2]: 2.5 | MIC [3]: > 100 µM

C[C@H](Oc1ccc2ncc(/C=C/C(=O)NS(C)(=O)=O)c(C3CC3)c2c1)c1c(Cl)cccc1Cl
IC50 [1]: 2 nM | logD [2]: 2.9 | MIC [3]: 35 µM

Cc1c(/C=C/C(=O)O)cnc2ccc(O[C@@H](C)c3c(Cl)ccc(F)c3Cl)cc12
IC50 [1]: 20 nM | logD [2]: 3 | MIC [3]: > 100 µM

C[C@H](Oc1ccc2ncc(/C=C/C(=O)O)c(CF)c2c1)c1c(Cl)ccc(F)c1Cl
IC50 [1]: 25 nM | MIC [3]: > 100 µM

C[C@H](Oc1ccc2ncc(/C=C/C(=O)NC(CC(=O)O)CC(=O)O)c(C3CC3)c2c1)c1c(Cl)ccc(F)c1Cl
IC50 [1]: 9 nM | logD [2]: 0.4 | MIC [3]: > 100 µM

O=C(O)/C=C/c1cnc2ccc(O[C@@H](CO)c3c(Cl)cccc3Cl)cc2c1C1CC1
IC50 [1]: 550 nM | logD [2]: 2 | MIC [3]: > 100 µM

C[C@H](Oc1ccc2ncc(/C=C/C(=O)O)c(O)c2c1)c1c(Cl)ccc(F)c1Cl
IC50 [1]: 5000 nM | logD [2]: 1.9 | MIC [3]: > 100 µM

C[C@H](Oc1ccc2ncc(/C=C/C(=O)O)c(-n3ccnc3)c2c1)c1c(Cl)ccc(F)c1Cl
IC50 [1]: 2200 nM | logD [2]: 2 | MIC [3]: > 100 µM
